Measurements published in patent US8658165B2, “Method of treating aberrant mucus production in respiratory disease” (Novartis AG, priority 2007, dated 2014).

Tests used:
[1] = tested on: Human Bronchial Epithelial Cells (HBECs); test: Inhibition of NRG1β1-induced goblet cell formation (MUC5AC and MUC5B protein by histology) in HBECs; type: cell-based; conditions: inhibitor at 10 μM, NRG1β1 50 nM, 7 days at ALI
Procedure: Human Bronchial epithelial cells (HBECs; Cambrex) were cultured in bronchial epithelial cell growth medium (BEGM; Cambrex) supplemented with the provided singlequots essentially as described in [Atherton et al, 2003]. For differentiation, cells were grown on 0.4 μm pore size, 12 mm TRANSWELL® inserts (Costar) at a cell density of 8.25×10^4 cells/insert in differentiation medium. Differentiation medium contained 50% BEGM and 50% Dulbeccos' modified Eagle's medium (DMEM) and was supplemented with 52 μg/ml bovine pituitary extract, 5 μg/ml insulin, 0.5 μg/ml hydrocortisone, 10 μg/ml transferrin, 0.5 μg/ml epinephrine 0.5 ng/ml human EGF, 50 μg/ml gentamicin and 50 nM retinoic acid. Cells were maintained submerged for 7 days then grown at air-liquid interface (ALI) for 7-14 days and medium was replenished every 2-3 days. […]
After 7 days (unless otherwise stated) of differentiation at ALI, the apical surface of the HBECs was washed gently with PBS and fixed with neutral buffered formalin and wax embedded. […] The area of staining was assessed using a ZEISS® Axioplan 2 microscope (×10 magnification) with an Imaging Associated KS400 image analyzer (Imaging Associates). Fourteen fields were scored for each sample. Data are presented as goblet cell density, which was defined as the ratio of stained area (μm^2) to length (μm) of epithelium scored. […]

[2] = tested on: Human Bronchial Epithelial Cells (HBECs); test: Effect of NRG1 isoforms on MUC5AC and MUC5B protein (goblet cell formation) in HBECs at air-liquid interface, immunohistochemistry; type: cell-based; conditions: HBECs at ALI, 7 days
Procedure: Human Bronchial epithelial cells (HBECs; Cambrex) were cultured in bronchial epithelial cell growth medium (BEGM; Cambrex) supplemented with the provided singlequots essentially as described in [Atherton et al, 2003]. For differentiation, cells were grown on 0.4 μm pore size, 12 mm TRANSWELL® inserts (Costar) at a cell density of 8.25×10^4 cells/insert in differentiation medium. Differentiation medium contained 50% BEGM and 50% Dulbeccos' modified Eagle's medium (DMEM) and was supplemented with 52 μg/ml bovine pituitary extract, 5 μg/ml insulin, 0.5 μg/ml hydrocortisone, 10 μg/ml transferrin, 0.5 μg/ml epinephrine 0.5 ng/ml human EGF, 50 μg/ml gentamicin and 50 nM retinoic acid. Cells were maintained submerged for 7 days then grown at air-liquid interface (ALI) for 7-14 days and medium was replenished every 2-3 days. Cells were treated with NRG1α or NRG1β1 (R&D SYSTEMS®) during the ALI culture period, added to the basolateral chamber of the TRANSWELL® inserts. At all stages cells were maintained at 37° C. in the presence of 5% CO2 in an air incubator.
After 7 days (unless otherwise stated) of differentiation at ALI, the apical surface of the HBECs was washed gently with PBS and fixed with neutral buffered formalin and wax embedded. Inserts were sectioned at 3 μm thickness and stained with either an anti-MUC5AC antibody (45M1; LABVISION®) or anti-MUC5B monoclonal antibodies using a DABMAP protocol on a VENTANA® XT immunostainer and counterstained with 1% alcian blue in 3% acetic acid, pH 2.5. The area of staining was assessed using a ZEISS® Axioplan 2 microscope (×10 magnification) with an Imaging Associated KS400 image analyzer (Imaging Associates). Fourteen fields were scored for each sample. Data are presented as goblet cell density, which was defined as the ratio of stained area (μm^2) to length (μm) of epithelium scored. Custom made anti-MUC5B monoclonal antibodies were obtained from the Hybridoma Core Laboratory, University of Florida and were raised against the peptide SWYNGHRPEPGLG (SEQ ID NO:11).

ErbB3 = ErbB3 (Homo sapiens, UniProt P21860); conditions: higher affinity than NRG1a; cited from earlier work
Sequence of ErbB3 (P21860 20-1342): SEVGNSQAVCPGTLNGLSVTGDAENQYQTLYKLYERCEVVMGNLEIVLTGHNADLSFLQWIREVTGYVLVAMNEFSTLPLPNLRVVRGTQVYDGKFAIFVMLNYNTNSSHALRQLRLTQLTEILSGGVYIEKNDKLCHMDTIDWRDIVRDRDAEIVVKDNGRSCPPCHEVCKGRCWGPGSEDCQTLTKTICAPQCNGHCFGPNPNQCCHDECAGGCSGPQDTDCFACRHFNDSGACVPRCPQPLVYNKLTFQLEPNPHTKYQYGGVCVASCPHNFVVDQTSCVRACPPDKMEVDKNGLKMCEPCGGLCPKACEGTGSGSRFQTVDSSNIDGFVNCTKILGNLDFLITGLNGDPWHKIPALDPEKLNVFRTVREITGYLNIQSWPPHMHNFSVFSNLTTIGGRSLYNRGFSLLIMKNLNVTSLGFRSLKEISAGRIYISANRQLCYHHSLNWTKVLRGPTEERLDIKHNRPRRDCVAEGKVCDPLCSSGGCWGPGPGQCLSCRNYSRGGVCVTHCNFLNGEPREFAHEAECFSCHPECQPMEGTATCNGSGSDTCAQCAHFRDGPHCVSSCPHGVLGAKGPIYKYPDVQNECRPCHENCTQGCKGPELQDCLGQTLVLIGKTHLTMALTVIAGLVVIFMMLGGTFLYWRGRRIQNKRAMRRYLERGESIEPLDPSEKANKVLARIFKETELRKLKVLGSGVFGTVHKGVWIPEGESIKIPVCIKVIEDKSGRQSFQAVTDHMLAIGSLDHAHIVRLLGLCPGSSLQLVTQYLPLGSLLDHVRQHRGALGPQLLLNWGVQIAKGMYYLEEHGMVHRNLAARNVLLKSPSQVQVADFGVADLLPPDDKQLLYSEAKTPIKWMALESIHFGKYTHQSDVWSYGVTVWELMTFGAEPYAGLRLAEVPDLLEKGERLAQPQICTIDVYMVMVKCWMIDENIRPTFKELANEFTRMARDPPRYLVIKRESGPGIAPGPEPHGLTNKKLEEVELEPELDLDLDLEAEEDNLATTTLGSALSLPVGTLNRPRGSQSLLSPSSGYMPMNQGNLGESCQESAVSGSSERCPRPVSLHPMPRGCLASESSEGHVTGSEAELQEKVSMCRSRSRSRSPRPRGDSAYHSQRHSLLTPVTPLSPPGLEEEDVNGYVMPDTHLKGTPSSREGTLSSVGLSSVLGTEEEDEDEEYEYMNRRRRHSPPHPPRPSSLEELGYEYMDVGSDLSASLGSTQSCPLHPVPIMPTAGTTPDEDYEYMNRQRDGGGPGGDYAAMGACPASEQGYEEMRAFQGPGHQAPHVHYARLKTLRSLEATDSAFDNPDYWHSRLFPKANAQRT

ErbB2/ErbB3 heterodimer = ErbB2/ErbB3 heterodimer (Homo sapiens, UniProt P21860); conditions: greater affinity than for ErbB3 homodimers; cited from earlier work

Row | Compound | effect on NRG1β1-induced increase in MUC5AC protein [1] | effect on NRG1β1-induced increase in MUC5B protein [1] | increase in MUC5AC protein over vehicle levels ([2]; 50 nM, histology) | increase in MUC5B protein ([2]; 50 nM, immunohistochemistry) | effect on MUC5AC protein ([2]; increasing concentrations, histology) | affinity for ErbB3 relative to NRG1a (ErbB3) | affinity for the ErbB2/ErbB3 heterodimer relative to ErbB3 homodimers (ErbB2/ErbB3 heterodimer)
1 | CCN1CCN(Cc2ccc(-c3cc4c(N[C@H](C)c5ccccc5)ncnc4[nH]3)cc2)CC1 [pan-ErbB receptor inhibitor] | significantly inhibited | significantly inhibited | – | – | – | – | –
2 | NRG1β1: Neuregulin-1 isoform β1 protein (R&D SYSTEMS) added to HBEC cultures | – | – | 3 fold | 9.8 fold | dose-dependent increase | 100 fold | 100 fold
